# Experimental data taken from patent US20080318961A1, “Drugs comprising chymase inhibitors and ACE inhibitors as effective ingredients” (Teijin, priority 2001, published 2008).
# Counter-ions that a name gives are not always drawn. Like-named read-outs stand apart in the source and are kept apart here.
# Key:
# [1] = test system: chymase; details: WO00/51640, J. Med. Chem., 2001, Vol. 44, p. 1286; cited from earlier work
# [2] = biological target: T1, human mast cell chymase (Homo sapiens, UniProt P23946); assay: Recombinant human mast cell chymase enzymatic activity inhibition; format: biochemical
# T1 construct: made in house; host or cells: insect cells (Th5), recombinant baculovirus
# T1 sequence (P23946 22-247): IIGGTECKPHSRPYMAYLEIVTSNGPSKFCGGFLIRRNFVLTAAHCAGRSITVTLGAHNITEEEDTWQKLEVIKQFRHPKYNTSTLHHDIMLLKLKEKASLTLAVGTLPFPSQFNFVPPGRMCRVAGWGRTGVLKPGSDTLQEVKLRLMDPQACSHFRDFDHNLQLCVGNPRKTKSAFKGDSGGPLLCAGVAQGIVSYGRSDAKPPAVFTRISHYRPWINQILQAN
# Procedure: Specifically, Heparin Sepharose (Pharmacia) was used for purification from a culture supernatant of insect cells (Th5) infected with recombinant baculovirus containing cDNA coding for human mast cell chymase.
# The time-related change in absorbance at 405 nm was measured to determine the inhibiting activity.
# [3] = biological target: Chymotrypsin (Bos taurus, UniProt P00766); assay: Enzyme selectivity: chymotrypsin inhibition; format: biochemical; details: Compound No. 33; read-out: Inhibition constant, Chymotrypsin
# [4] = biological target: hamster chymase 1 (Mesocricetus auratus, UniProt O08732); assay: Chymase-inhibiting activity using hamster chymase; format: biochemical; details: Compound No. 33; read-out: Inhibition constant, Hamster chymase
# Procedure: After adding 2 μl of a DMSO solution containing a compound of the invention to 50 μl of Buffer A (0.5-3.0 M NaCl, 50 mM Tris-HCl, pH 8.0) containing 1-5 ng of the active form human mast cell chymase obtained in Example 1, there was added 50 μl of Buffer A containing 0.5 mM succinyl-alanyl-histidyl-prolyl-phenylalanylparanitroanilide (Bachem) as a substrate, and reaction was conducted at room temperature for 5 minutes. The time-related change in absorbance at 405 nm was measured to determine the inhibiting activity.
# Hamster chymase was obtained from a crude product extracted from hamster tongue tissue with an acidic buffer solution and subsequently purified with a Phenyl-Sepharose column (elution: 0.15 M NaCl, 50 mM sodium phosphate, pH 6.5, 50% ethylene glycol) and a Heparin-Cellulofine column (elution: 0.5-2.0 M NaCl). The protein was identified as hamster chymase 1 based on the N-terminal amino acid sequence, and activity inhibition was measured by the same method as for the human chymase.
# [5] = biological target: Mouse chymase; assay: Enzyme selectivity: mouse chymase inhibition; format: biochemical; details: Compound No. 33; read-out: Inhibition constant, Mouse chymase
# [6] = biological target: Human tryptase (Homo sapiens, UniProt Q15661); assay: Enzyme selectivity: human tryptase inhibition; format: biochemical; details: Compound No. 33; read-out: Inhibition constant, Human tryptase
# [7] = Blood drug concentrations upon oral administration to hamsters; format: in vivo; details: hamster, serum, 0.1% (w/w) in feed for 5 days, mean±S.E., N=4, read-out: hamster serum concentration of the parent drug
# Procedure: The chymase inhibitor designated as Compound No. 33 was mixed with MF powder feed to a content of 0.1% (w/w) to prepare a hamster feed which was given to hamsters for 5 days. Blood was sampled from the abdominal aorta under ether anesthesia, the serum was extracted, and the serum compound concentrations were measured by high-performance liquid chromatography.
# [8] = biological target: T2, Trypsin (Bos taurus, UniProt P00760); assay: Enzyme selectivity: trypsin inhibition; format: biochemical; details: Compound No. 33; read-out: Inhibition constant, Trypsin
# T2 construct: gene PRSS1
# T2 sequence (P00760 24-246): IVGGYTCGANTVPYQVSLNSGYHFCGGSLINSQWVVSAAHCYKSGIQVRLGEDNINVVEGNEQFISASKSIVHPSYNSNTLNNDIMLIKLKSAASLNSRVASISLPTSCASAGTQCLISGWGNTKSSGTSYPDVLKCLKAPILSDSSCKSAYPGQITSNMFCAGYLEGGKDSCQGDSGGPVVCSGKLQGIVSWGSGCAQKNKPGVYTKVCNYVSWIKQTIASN
# [9] = test system: hamster chymase; assay: Accelerated vascular permeation model by intradermal injection of hamster chymase; format: in vivo, Syrian hamsters; details: 0.1% (w/w) in feed for 5 days; Evans Blue, 30 minutes after intradermal hamster chymase
# Procedure: Compound No. 33 was mixed with powder feed to a content of 0.1% (w/w) to prepare a feed which was given to hamsters (Syrian hamsters, male, 7-week-old) for 5 days. Under ether anesthesia, the hamster backs were shaved and the hamster chymase was intradermally injected (hamster chymase: 1, 0.3, 0.1 μg/site; vehicle: 0.15 M NaCl, 0.1 mg/ml BSA, 10 mM Pi-Na, pH 7.0). Evans Blue (1% (w/v) solution, 5 ml/kg) was intravenously administered just prior to the intradermal injection, and the blue spots produced by chymase intradermal injection were quantified. Specifically, the hamsters were bled to death from the abdominal aorta 30 minutes after intradermal injection, and the skin was sampled using the blueing spots as an index. The sampled skin was placed in a glass test tube, the dye was extracted with 2 ml of EB extract (acetone:0.3% Na2SO4=7:3), and the dye leakage was measured by colorimetry using a spectrophotometer (620 nm).
# [10] = test system: Human chymase-overexpressing mice (TGM); assay: Angiotensin-elicited blood pressure increase model using chymase-overexpressing mice; format: in vivo; details: continuous angiotensin I infusion; for suppression of vasopressor effect (blood pressure): compared to control group, combination normal from 10th day, P<0.05
# Procedure: Human chymase-overexpressing mice (hereinafter abbreviated as “TGM”) created by introduction of the human chymase gene with an angiotensin II-producing function were used as the model animals. Specifically, 8- to 10-week-old TGM mice were used, and angiotensin I was continuously infused with a microosmostic pump embedded under the mouse skin (70 μg/kg/min) to create continuous hypertensive mouse models. The continuous infusion of angiotensin I was confirmed to elicit a vasopressor response of about 30 mmHg in the TGM (n=6) with respect to the wild type (n=8), while depressor action was examined in groups administered a chymase inhibitor (Compound No. 33, 0.1% diet, n=7), an ACE inhibitor (temocapril hydrochloride, 2.0 mg/kg/day, n=6), an angiotensin receptor blocker (ARB) (Valsartan, 14 mg/kg/day, n=7) and a chymase inhibitor and ACE inhibitor simultaneously (Compound No. 33, 0.1% diet, and temocapril hydrochloride, 2.0 mg/kg/day, n=6). The letter “n” indicates the number of individuals. […] […].
# [11] = test system: canine myocardial infarction models; details: 75th Annual Meeting of the Japanese Pharmacological Society; cited from earlier work
# [12] = test system: hamster myocardial infarction models; details: Life Sci. 2002, Vol. 71, p. 437; cited from earlier work
# [13] = recombinant active form human mast cell chymase, room temperature 5 minutes, absorbance 405 nm, read-out: IC50, human mast cell chymase inhibiting activity
# [14] = stated in parentheses for Compounds A and B, read-out: human chymase IC50 (reference compounds)
# Human tryptase, sequence (Q15661 31-275): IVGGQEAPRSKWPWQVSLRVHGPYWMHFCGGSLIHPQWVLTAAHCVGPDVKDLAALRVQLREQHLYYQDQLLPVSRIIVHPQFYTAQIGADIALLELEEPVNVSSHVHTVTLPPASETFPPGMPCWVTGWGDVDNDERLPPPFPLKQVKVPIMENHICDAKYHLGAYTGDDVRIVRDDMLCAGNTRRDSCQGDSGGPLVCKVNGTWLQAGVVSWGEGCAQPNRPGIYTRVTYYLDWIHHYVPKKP
# hamster chymase 1, sequence (O08732 entry or part of it): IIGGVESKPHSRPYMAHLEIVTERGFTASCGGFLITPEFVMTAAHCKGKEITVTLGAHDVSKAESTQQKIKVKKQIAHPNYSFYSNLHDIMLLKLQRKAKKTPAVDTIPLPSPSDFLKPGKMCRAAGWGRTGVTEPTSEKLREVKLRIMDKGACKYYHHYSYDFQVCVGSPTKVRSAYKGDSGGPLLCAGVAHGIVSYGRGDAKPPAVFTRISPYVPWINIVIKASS
Compound,"IC50 [2, 13]",other results
COC(=O)c1ccc2oc(C(=O)C(Cc3ccccc3)NC(=O)Cn3c(-c4ccccc4OC)ncc(N)c3=O)nc2c1 (stereo not shown) [formula (IV-I)],–,chymase inhibiting activity by oral administration to mouse allergy models [1]: exhibit chymase inhibiting activity
Cn1cc(Cn2c(SCCCC(=O)O)nc3ccccc32)c2c(Cl)cccc21 [compound 9],10 to 100 nM,–
Cn1cc(Cn2c(SCCCC(=O)O)nc3ccccc32)c2c(F)cccc21 [compound 10],10 to 100 nM,–
O=C(O)CCCSc1nc2ccccc2n1Cc1cccc2ccccc12 [Compound No. 33],10 to 100 nM,"Ki [3]: > 10000 nM; Ki ([2]; Compound No. 33, read-out: Inhibition constant, Human chymase): 6.2 ± 2.2 nM; Ki [4]: 30.6 ± 3.8 nM; Ki [5]: 73.4 ± 24.2 nM; Ki [6]: > 10000 nM; concentration at 5 days [7]: 7.89 ± 1.09 µM; Ki [8]: > 10000 nM; dye leakage (accelerated vascular permeation) [9]: decrease in dye leakage; suppression of cardiac hypertrophy [10]: no notable suppression; suppression of vasopressor effect (blood pressure) [10]: no notable suppression"
O=CNc1cnc(-c2ccccc2)n(CC(=O)NC(Cc2ccccc2)C(=O)C(=O)CCCOc2ccccn2)c1=O (stereo not shown) [formula (III-I)],–,efficacy when orally administered to canine myocardial infarction models [11]: efficacious
COc1ccc2c(c1)nc(SCCCC(=O)O)n2Cc1cn(C)c2cccc(Cl)c12 [compound 45],10 to 100 nM,–
Cc1cc(C)c2c(Cn3c(SCCCC(=O)O)nc4ccccc43)csc2c1 [compound 31],10 to 100 nM,–
O=C(O)CCCSc1nc2ccccc2n1Cc1csc2ccc(Cl)cc12 [compound 22],10 to 100 nM,–
O=C(O)CCCSc1nc2ccccc2n1Cc1csc2cccc(Cl)c12 [compound 27],10 to 100 nM,–
CCOc1ccccc1CC1C(=O)N(C(=O)NC(c2ccc(C)cc2)c2ccc(C)cc2)C1Oc1ccc(C(=O)O)cc1 (stereo not shown) [4-[1-{[bis(4-methylphenyl)methyl]carbamoyl}-3-(2-ethoxybenzyl)-4-oxoazetidin-2-yloyl]benzoic acid],–,effect when administered alone to hamster myocardial infarction models [12]: exhibit an effect
Cc1ccc2c(c1)c(Cn1c(SCCCC(=O)O)nc3ccccc31)cn2C [compound 6],10 to 100 nM,–
CCCCC(=O)N(Cc1ccc(-c2ccccc2-c2nnn[nH]2)cc1)[C@H](C(=O)O)C(C)C [Valsartan],–,suppression of cardiac hypertrophy [10]: no notable suppression
O=C(O)CCCSc1nc2ccccc2n1Cc1csc2ccccc12 [compound 20],10 to 100 nM,–
Cc1ccc2scc(Cn3c(SCCCC(=O)O)nc4ccccc43)c2c1 [compound 24],10 to 100 nM,–
COc1ccc2c(c1)nc(SCCCC(=O)O)n2Cc1csc2ccccc12 [compound 56],10 to 100 nM,–
COc1ccc2c(c1)nc(SCCCC(=O)O)n2Cc1csc2cccc(C)c12 [compound 62],10 to 100 nM,–
"[O-][S+](Cc1ccc(Cl)cc1)c1nnc(OCc2ccc(Cl)cc2)c2nccn12 (stereo not shown) [Compound B, reference compound]",–,"IC50 [2, 14]: 30 nM; dye leakage (accelerated vascular permeation) [9]: no clear suppressing action"
"O=C1CN(c2ccc(Cl)cc2)C(=O)N1S(=O)(=O)c1ccc(Cl)cc1 [Compound A, reference compound]",–,"IC50 [2, 14]: 9 nM; dye leakage (accelerated vascular permeation) [9]: no clear suppressing action"
CCOC(=O)[C@H](CCc1ccccc1)N[C@H]1CS[C@H](c2cccs2)CN(CC(=O)O)C1=O [temocapril hydrochloride],–,suppression of cardiac hypertrophy [10]: no notable suppression; suppression of vasopressor effect (blood pressure) [10]: no notable suppression

# More lines, main results first:
"IC50 [2, 13]",Compound,other results
10 to 100 nM,N#Cc1ccc2c(c1)nc(SCCCC(=O)O)n2Cc1csc2ccccc12 [compound 92],–
10 to 100 nM,Cc1cc2nc(SCCCC(=O)O)n(Cc3cn(C)c4ccccc34)c2cc1C [compound 182],–
10 to 100 nM,Cc1ccc2c(c1)nc(SCCCC(=O)O)n2Cc1csc2ccccc12 [compound 128],–
10 to 100 nM,Cc1cc2nc(SCCCC(=O)O)n(Cc3csc4ccc(Cl)cc34)c2cc1C [compound 202],–
10 to 100 nM,COc1ccc2nc(SCCCC(=O)O)n(Cc3csc4cccc(C)c34)c2c1 [compound 242],–
10 to 100 nM,Cc1cc2nc(SCCCC(=O)O)n(Cc3cn(C)c4cccc(Cl)c34)c2cc1C [compound 189],–
10 to 100 nM,COc1ccc2nc(SCCCC(=O)O)n(Cc3csc4ccc(C)cc34)c2c1 [compound 240],–
10 to 100 nM,Cc1cc2nc(SCCCC(=O)O)n(Cc3csc4ccccc34)c2cc1C [compound 200],–
10 to 100 nM,Cc1cc2nc(SCCCC(=O)O)n(Cc3csc4cccc(C)c34)c2cc1C [compound 206],–
10 to 100 nM,Cc1cc2nc(SCCCC(=O)O)n(Cc3cn(C)c4cccc(C)c34)c2cc1C [compound 187],–
10 to 100 nM,Cc1ccc2scc(Cn3c(SCCCC(=O)O)nc4cc(C)c(C)cc43)c2c1 [compound 204],–
